Active and inactive are the calls of the source.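 The calls were made as follows: active = mean EC50 below 100 µM; inactive = the rest.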
The compounds below were run against placental alkaline phosphatase (human) (assay: effect of analogs on PLAP activity, SAR follow-up, selectivity assay for mouse IAP activator project, biochemical, human PLAP, set 2 (AID 588607)). Settings: purified PLAP, CDP-Star luminescence, 30 min.

Compound	EC50	IC50 (inhibition of PLAP activity) [µM]
Cc1ccc(C)c(NC(=S)Nc2ccc(S(=O)(=O)N3CCCCC3)cc2)c1	> 100 µM (inactive)	
CN(C)S(=O)(=O)c1cccc(NC(=S)NCCC(c2ccccc2)c2ccccc2)c1		93
COc1cccc(CNC(=S)Nc2ccc(S(=O)(=O)N(C)C)cc2)c1		91
CC1CCN(S(=O)(=O)c2ccc(NC(=S)NC(c3ccccc3)c3ccccc3)cc2)CC1		47.2
COc1ccc(CCNC(=S)Nc2ccc(S(=O)(=O)N3CCCCC3)cc2)cc1		70.8
CN(C)S(=O)(=O)c1ccc(NC(=S)NCCc2cccc(Br)c2)cc1		57
CN(C)S(=O)(=O)c1cccc(NC(=S)NCCc2ccc(Br)cc2)c1		92
CN(C)S(=O)(=O)c1cccc(NC(=S)NCCC(=O)N2CCCC2)c1	> 100 µM (inactive)	
O=S(=O)(c1ccc(NC(=S)NCC(c2ccccc2)c2ccccc2)cc1)N1CCCCC1		29.6
Cc1ccc(S(=O)(=O)N(C)C)cc1NC(=S)NC(=O)C12CC3CC(CC(C3)C1)C2	> 100 µM (inactive)	
CCN(CC)c1ccc(C(=O)NC(=S)Nc2cc(S(=O)(=O)N3CCOCC3)ccc2-n2cncn2)cc1	> 100 µM (inactive)	
CC(CNC(=S)Nc1cccc(S(=O)(=O)N(C)C)c1)N1CCN(c2ccccc2)CC1 (stereo unspecified)	> 100 µM (inactive)	
O=S(=O)(c1ccc(NC(=S)NC(c2ccccc2)c2ccccc2)cc1)N1CCCC1		22.1
CN(C)S(=O)(=O)c1ccc(NC(=S)NC(c2ccccc2)c2ccccc2)cc1		29
O=S(=O)(c1ccc(NC(=S)NCCC(c2ccccc2)c2ccccc2)cc1)N1CCCCC1		38.6
CN(C)S(=O)(=O)c1ccc(NC(=S)NCC(c2ccccc2)c2ccccc2)cc1		40.8
CN(C)S(=O)(=O)c1ccc(NC(=S)NCCc2cccc(O)c2)cc1	> 100 µM (inactive)	
CN(C)S(=O)(=O)c1cccc(NC(=S)NCCc2ccc(F)cc2)c1	> 100 µM (inactive)	
CN(C)S(=O)(=O)c1cccc(NC(=S)NCCCn2ccnc2)c1	> 100 µM (inactive)	
CCN(CC)S(=O)(=O)c1ccc(NC(=S)NCC(c2ccccc2)c2ccccc2)cc1		30.1
CC(CCc1ccccc1)NC(=S)Nc1cccc(S(=O)(=O)N(C)C)c1 (stereo unspecified)		69.2
Cc1ccc(S(=O)(=O)N(C)C)cc1NC(=S)NC(C)CCC(C)C (stereo unspecified)		78.5

Compound	EC50	IC50 (inhibition of PLAP activity) [µM]
CN(CCc1ccccn1)C(=S)Nc1cccc(S(=O)(=O)N(C)C)c1	> 100 µM (inactive)	
Cc1ccc(S(=O)(=O)N(C)C)cc1NC(=S)NC1CCN(Cc2ccccc2)CC1	> 100 µM (inactive)	
CN(C)CC(C)(C)CNC(=S)Nc1cccc(S(=O)(=O)N(C)C)c1	> 100 µM (inactive)	
COc1ccccc1CNC(=S)Nc1ccc(S(=O)(=O)N(C)C)cc1		69.6
O=S(=O)(c1ccc(NC(=S)NCc2cccc(F)c2)cc1)N1CCCCC1		78.1
O=C(CCc1ccccc1)NC(=S)Nc1cccc(S(=O)(=O)N2CCCC2)c1	> 100 µM (inactive)	
Cc1ccccc1CNC(=S)Nc1ccc(S(=O)(=O)N(C)C)cc1		71.8
CN(C)S(=O)(=O)c1cccc(NC(=S)NCCN2CCCC2)c1	> 100 µM (inactive)	
CCN(CC)S(=O)(=O)c1ccc(NC(=S)NC(c2ccccc2)c2ccccc2)cc1		26.3
CN(C)S(=O)(=O)c1ccc(NC(=S)NCCN2CCCC2)cc1	> 100 µM (inactive)	
O=C(NC(=S)Nc1cc(S(=O)(=O)N2CCOCC2)ccc1N1CCOCC1)c1ccco1	> 100 µM (inactive)	
CN(C)S(=O)(=O)c1cccc(NC(=S)NCCCN2CCCC2=O)c1	> 100 µM (inactive)	
Cc1ccc(CNC(=S)Nc2ccc(S(=O)(=O)N(C)C)cc2)cc1		78.6
O=C(NC(=S)Nc1cc(S(=O)(=O)N2CCOCC2)ccc1O)c1ccco1		43.6
CCOc1cc(CCNC(=S)Nc2ccc(S(=O)(=O)N(C)C)cc2)ccc1OC		89.9
CC1CC(NC(=S)Nc2cccc(S(=O)(=O)N(C)C)c2)CC(C)N1 (stereo unspecified)	> 100 µM (inactive)	
COc1ccc(CNC(=S)Nc2ccc(S(=O)(=O)N3CCCCC3)cc2)cc1OC		68.6
CN(C)S(=O)(=O)c1cccc(NC(=S)NCCc2cccc(Br)c2)c1		73
O=S(=O)(c1ccc(NC(=S)NCC(c2ccccc2)c2ccccc2)cc1)N1CCCC1		19.5
Cc1ccc(CNC(=S)Nc2cccc(S(=O)(=O)N(C)C)c2)cc1		82.8
CCN(CC)CCCNC(=S)Nc1cccc(S(=O)(=O)N(C)C)c1	> 100 µM (inactive)	
CN(C)S(=O)(=O)c1cccc(NC(=S)NC(c2ccccc2)c2ccccc2)c1		31.2

Compound	EC50	IC50 (inhibition of PLAP activity) [µM]
CN(C)S(=O)(=O)c1cccc(NC(=S)NCCc2cccc(F)c2)c1	> 100 µM (inactive)	
CN(C)CCCNC(=S)Nc1cccc(S(=O)(=O)N(C)C)c1	> 100 µM (inactive)	
CN(C)S(=O)(=O)c1cccc(NC(=S)NCC(c2ccccc2)c2ccccc2)c1		35.9
CN(C)S(=O)(=O)c1cccc(NC(=S)NCCc2ccccc2)c1		86.6
CN(C)S(=O)(=O)c1ccc(NC(=S)NCCc2ccccc2)cc1	> 100 µM (inactive)	
CC1CCN(S(=O)(=O)c2ccc(NC(=S)NCCC(c3ccccc3)c3ccccc3)cc2)CC1		31.9
CCCCCCC(C)NC(=S)Nc1cc(S(=O)(=O)N(C)C)ccc1C (stereo unspecified)	> 100 µM (inactive)	
CN(C)S(=O)(=O)c1cccc(NC(=S)NCc2ccc(Cl)cc2)c1	> 100 µM (inactive)	
CN(C)S(=O)(=O)c1cccc(NC(=S)NCCc2cccc(O)c2)c1	> 100 µM (inactive)	
O=S(=O)(c1ccc(NC(=S)NC(c2ccccc2)c2ccccc2)cc1)N1CCCCC1		16.6
Cc1ccc(S(=O)(=O)N(C)C)cc1NC(=S)NC(C)CCCC(C)C (stereo unspecified)		66.1
CN(CCc1ccccc1)C(=S)Nc1cccc(S(=O)(=O)N(C)C)c1	> 100 µM (inactive)	
O=S(=O)(c1ccc(NC(=S)NCCC(c2ccccc2)c2ccccc2)cc1)N1CCCC1		42
CN(C)S(=O)(=O)c1ccc(NC(=S)NCc2ccc(Cl)cc2)cc1	> 100 µM (inactive)	
Cc1ccc(S(=O)(=O)N(C)C)cc1NC(=S)NCCCn1ccnc1	> 100 µM (inactive)	
CN(C)S(=O)(=O)c1cccc(NC(=S)NC(C)(C)CC(C)(C)C)c1		85.7
O=c1c2ccccc2[nH]c(=S)n1-c1cccc(S(=O)(=O)N2CCCC2)c1	> 100 µM (inactive)	
COc1ccc(CCNC(=S)Nc2ccc(S(=O)(=O)N3CCCCC3)cc2)cc1OC		81.9
CCN(CC)S(=O)(=O)c1ccc(NC(=S)NCCC(c2ccccc2)c2ccccc2)cc1		52.5
O=S(=O)(c1ccc(NC(=S)NCc2cccc(Cl)c2)cc1)N1CCCCC1		84.9
COc1cccc(CCNC(=S)Nc2cccc(S(=O)(=O)N(C)C)c2)c1		78.6
CN(C)S(=O)(=O)c1ccc(NC(=S)NCCC(c2ccccc2)c2ccccc2)cc1		35

From PubChem BioAssay AID588607 (Sanford-Burnham Center for Chemical Genomics, 2011)
